Assay results as given in patent US6355799B1, “Substituted benzene compounds, process for their preparation, and herbicidal and defoliant compositions containing them” (ISK Americas Incorporated, priority 1997, dated 2002).

Key:
Type in all cases: in vivo
[1] = tested on: upland rice (Oryza sp., var. Tebonnet, RICE); experiment: Pre-emerge test, crop safety; conditions: pre-emerge; for phytotoxicity rating RICE: 14 days after application, rating scale 0-100; for Pre-emerge Herbicidal Activity RICE: crop damage, phytotoxicity rating 0-100 at 14 days after application
In short: (§1)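 Compounds in acetone were track-sprayed at 187 l/ha, 15–1000 g ai/ha, onto sandy loam pots. Pre-emerge seeds were sown one day before spraying, with surface watering afterwards. Post-emerge plants were at the 2–3 leaf stage and sprayed with 0.25% v/v non-ionic surfactant. Injury was rated 0–100 at 14 days.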

[2] = tested on: field corn (Zea mays L., var. Dekalb 535, CORN); experiment: Pre-emerge test, crop safety; conditions: pre-emerge; for phytotoxicity rating CORN: 14 days after application, rating scale 0-100; for Pre-emerge Herbicidal Activity CORN: crop damage, phytotoxicity rating 0-100 at 14 days after application
In short: as §1

[3] = tested on: redroot pigweed (Amaranthus retroflexus, AMARE); experiment: Post-emerge test, greenhouse herbicide activity screening; conditions: post-emerge; for Post-emerge Herbicidal Activity AMARE (phytotoxicity rating): 14 days after application; for Post-emerge Herbicidal Activity AMARE: phytotoxicity rating 0-100 at 14 days after application
In short: (§2)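 Compounds in acetone were track-sprayed at 15–1000 g ai/ha: pre-emergence onto soil sown the previous day, then top-watered to incorporate and later bottom-watered; post-emergence onto 2–3 leaf plants with 0.25% v/v surfactant, bottom-watered only. Ratings on a 0–100 phytotoxicity scale were taken at day 14.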

[4] = tested on: lambsquarters (Chenopodium album, CHEAL); experiment: as above; conditions: post-emerge; for Post-emerge Herbicidal Activity CHEAL (phytotoxicity rating): 14 days after application, rating scale 0-100; for Post-emerge Herbicidal Activity CHEAL: phytotoxicity rating 0-100 at 14 days after application
In short: as §2

[5] = tested on: large crabgrass (Digitaria sanguinalis, DIGSA); experiment: as above; conditions: post-emerge; for Post-emerge Herbicidal Activity DIGSA (phytotoxicity rating): 14 days after application, rating scale 0-100; for Post-emerge Herbicidal Activity DIGSA: phytotoxicity rating 0-100 at 14 days after application
In short: as §2

[6] = tested on: ivyleaf morningglory (Ipomoea hederacea, IPOHE); experiment: as above; conditions: post-emerge; for Post-emerge Herbicidal Activity IPOHE (phytotoxicity rating): 14 days after application, rating scale 0-100; for Post-emerge Herbicidal Activity IPOHE: phytotoxicity rating 0-100 at 14 days after application
In short: as §2

[7] = tested on: sicklepod (Cassia obtusifolia, CASOB); experiment: as above; conditions: post-emerge; for Post-emerge Herbicidal Activity CASOB (phytotoxicity rating): 14 days after application, rating scale 0-100; for Post-emerge Herbicidal Activity CASOB: phytotoxicity rating 0-100 at 14 days after application
In short: as §2

[8] = tested on: velvetleaf (Abutilon theophrasti, ABUTH); experiment: as above; conditions: post-emerge; for Post-emerge Herbicidal Activity ABUTH (phytotoxicity rating): 14 days after application, rating scale 0-100; for Post-emerge Herbicidal Activity ABUTH: phytotoxicity rating 0-100 at 14 days after application
In short: as §2

[9] = tested on: green foxtail (Setaria viridis, SETVI); experiment: as above; conditions: post-emerge; for Post-emerge Herbicidal Activity SETVI (phytotoxicity rating): 14 days after application, rating scale 0-100; for Post-emerge Herbicidal Activity SETVI: phytotoxicity rating 0-100 at 14 days after application
In short: as §2

[10] = tested on: barnyardgrass (Echinochloa crus-galli, ECHCG); experiment: as above; conditions: post-emerge; for Post-emerge Herbicidal Activity ECHCG (phytotoxicity rating): 14 days after application, rating scale 0-100; for Post-emerge Herbicidal Activity ECHCG: phytotoxicity rating 0-100 at 14 days after application
In short: as §2

[11] = tested on: johnsongrass (Sorghum halepense, SORHA); experiment: Pre-emerge test, greenhouse herbicide activity screening; conditions: pre-emerge; for phytotoxicity rating SORHA: 14 days after application, rating scale 0-100; for Pre-emerge Herbicidal Activity SORHA: phytotoxicity rating 0-100 at 14 days after application
In short: (§3)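 Herbicidal damage is scored 0 (none) to 100 (complete plant death) two weeks after a simulated field spray. Rates span 15–1000 g ai/ha, delivered in acetone at 187 l/ha. For post-emergence treatments, plants have 2–3 leaves and the spray carries 0.25% v/v non-ionic surfactant.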

[12] = tested on: lambsquarters (Chenopodium album, CHEAL); experiment: as above; conditions: pre-emerge; for phytotoxicity rating CHEAL: 14 days after application, rating scale 0-100; for Pre-emerge Herbicidal Activity CHEAL: phytotoxicity rating 0-100 at 14 days after application
In short: as §3

[13] = tested on: large crabgrass (Digitaria sanguinalis, DIGSA); experiment: as above; conditions: pre-emerge; for phytotoxicity rating DIGSA: 14 days after application, rating scale 0-100; for Pre-emerge Herbicidal Activity DIGSA: phytotoxicity rating 0-100 at 14 days after application
In short: as §3

[14] = tested on: ivyleaf morningglory (Ipomoea hederacea, IPOHE); experiment: as above; conditions: pre-emerge; for phytotoxicity rating IPOHE: 14 days after application, rating scale 0-100; for Pre-emerge Herbicidal Activity IPOHE: phytotoxicity rating 0-100 at 14 days after application
In short: as §3

[15] = tested on: sicklepod (Cassia obtusifolia, CASOB); experiment: as above; conditions: pre-emerge; for phytotoxicity rating CASOB: 14 days after application, rating scale 0-100; for Pre-emerge Herbicidal Activity CASOB: phytotoxicity rating 0-100 at 14 days after application
In short: as §3

[16] = tested on: velvetleaf (Abutilon theophrasti, ABUTH); experiment: as above; conditions: pre-emerge; for phytotoxicity rating ABUTH: 14 days after application, rating scale 0-100; for Pre-emerge Herbicidal Activity ABUTH: phytotoxicity rating 0-100 at 14 days after application
In short: as §3

[17] = tested on: green foxtail (Setaria viridis, SETVI); experiment: as above; conditions: pre-emerge; for phytotoxicity rating SETVI: 14 days after application, rating scale 0-100; for Pre-emerge Herbicidal Activity SETVI: phytotoxicity rating 0-100 at 14 days after application
In short: as §3

[18] = tested on: barnyardgrass (Echinochloa crus-galli, ECHCG); experiment: as above; conditions: pre-emerge; for phytotoxicity rating ECHCG: 14 days after application, rating scale 0-100; for Pre-emerge Herbicidal Activity ECHCG: phytotoxicity rating 0-100 at 14 days after application
In short: as §3

[19] = tested on: upland rice (Oryza sp., var. Tebonnet, RICE); experiment: Post-emerge test, crop safety; conditions: post-emerge; for Post-emerge Herbicidal Activity RICE (crop damage rating): 14 days after application, rating scale 0-100; for Post-emerge Herbicidal Activity RICE: crop damage rating 0-100 at 14 days after application
In short: as §3

[20] = tested on: field corn (Zea mays L., var. Dekalb 535, CORN); experiment: Post-emerge test, crop safety; conditions: post-emerge; for Post-emerge Herbicidal Activity CORN (crop damage rating): 14 days after application, rating scale 0-100; for Post-emerge Herbicidal Activity CORN: crop damage rating 0-100 at 14 days after application
In short: as §3

[21] = tested on: redroot pigweed (Amaranthus retroflexus, AMARE); experiment: Pre-emerge test, greenhouse herbicide activity screening; conditions: pre-emerge; for phytotoxicity rating AMARE: 14 days after application, rating scale 0-100; for Pre-emerge Herbicidal Activity AMARE: phytotoxicity rating 0-100 at 14 days after application
In short: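 Visual ratings on a 0-100 scale (0 no damage, 100 all plants dead) were taken at 14 days after treatment. Rates of 15-1000 g ai/ha in acetone, 187 l/ha, were sprayed onto soil one day after planting (pre-emerge) or onto 2-3 leaf plants with 0.25% v/v surfactant (post-emerge).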

COc1c(Cl)cc(F)c(-n2c(=O)cc(C(F)(F)F)n(C)c2=O)c1NNC(=O)Oc1ccccc1 [15-7]
85: phytotoxicity rating CORN ([2]; 63 g ai/ha)
90: phytotoxicity rating RICE ([1]; 63 g ai/ha) | Post-emerge Herbicidal Activity SETVI (phytotoxicity rating) ([9]; 250 g ai/ha) | phytotoxicity rating DIGSA ([13]; 63 g ai/ha) | Post-emerge Herbicidal Activity RICE (crop damage rating) ([19]; 250 g ai/ha)
50: Post-emerge Herbicidal Activity RICE (crop damage rating) ([19]; 63 g ai/ha)
30: Post-emerge Herbicidal Activity SETVI (phytotoxicity rating) ([9]; 63 g ai/ha)
100: phytotoxicity rating RICE ([1]; 250 g ai/ha) | phytotoxicity rating CORN ([2]; 250 g ai/ha) | Post-emerge Herbicidal Activity AMARE (phytotoxicity rating) ([3]; 63 g ai/ha, rating scale 0-100 (0 no damage, 100 complete death)) | Post-emerge Herbicidal Activity AMARE (phytotoxicity rating) ([3]; 250 g ai/ha, rating scale 0-100) | Post-emerge Herbicidal Activity CHEAL (phytotoxicity rating) ([4]; 63 g ai/ha) | Post-emerge Herbicidal Activity CHEAL (phytotoxicity rating) ([4]; 250 g ai/ha) | Post-emerge Herbicidal Activity IPOHE (phytotoxicity rating) ([6]; 63 g ai/ha) | Post-emerge Herbicidal Activity IPOHE (phytotoxicity rating) ([6]; 250 g ai/ha) | Post-emerge Herbicidal Activity CASOB (phytotoxicity rating) ([7]; 250 g ai/ha) | Post-emerge Herbicidal Activity ABUTH (phytotoxicity rating) ([8]; 63 g ai/ha) | Post-emerge Herbicidal Activity ABUTH (phytotoxicity rating) ([8]; 250 g ai/ha) | phytotoxicity rating SORHA ([11]; 250 g ai/ha) | phytotoxicity rating CHEAL ([12]; 63 g ai/ha) | phytotoxicity rating CHEAL ([12]; 250 g ai/ha) | phytotoxicity rating DIGSA ([13]; 250 g ai/ha) | phytotoxicity rating IPOHE ([14]; 250 g ai/ha) | phytotoxicity rating CASOB ([15]; 63 g ai/ha) | phytotoxicity rating CASOB ([15]; 250 g ai/ha) | phytotoxicity rating ABUTH ([16]; 63 g ai/ha) | phytotoxicity rating ABUTH ([16]; 250 g ai/ha) | phytotoxicity rating SETVI ([17]; 63 g ai/ha) | phytotoxicity rating SETVI ([17]; 250 g ai/ha) | phytotoxicity rating ECHCG ([18]; 250 g ai/ha) | phytotoxicity rating AMARE ([21]; 63 g ai/ha) | phytotoxicity rating AMARE ([21]; 250 g ai/ha)
75: Post-emerge Herbicidal Activity DIGSA (phytotoxicity rating) ([5]; 250 g ai/ha)
95: Post-emerge Herbicidal Activity ECHCG (phytotoxicity rating) ([10]; 250 g ai/ha) | phytotoxicity rating SORHA ([11]; 63 g ai/ha) | phytotoxicity rating IPOHE ([14]; 63 g ai/ha)
80: phytotoxicity rating ECHCG ([18]; 63 g ai/ha) | Post-emerge Herbicidal Activity CORN (crop damage rating) ([20]; 250 g ai/ha)
40: Post-emerge Herbicidal Activity ECHCG (phytotoxicity rating) ([10]; 63 g ai/ha)
60: Post-emerge Herbicidal Activity CASOB (phytotoxicity rating) ([7]; 63 g ai/ha) | Post-emerge Herbicidal Activity CORN (crop damage rating) ([20]; 63 g ai/ha)
20: Post-emerge Herbicidal Activity DIGSA (phytotoxicity rating) ([5]; 63 g ai/ha)

COc1c(Cl)cc(F)c(-n2nnn(CCCF)c2=O)c1NC(=O)c1ccc2ccccc2c1 [Compound 5-26]
0: Pre-emerge Herbicidal Activity CORN ([2]; rate 63 g ai/ha) | Pre-emerge Herbicidal Activity CORN ([2]; rate 250 g ai/ha) | Pre-emerge Herbicidal Activity SORHA ([11]; rate 63 g ai/ha) | Pre-emerge Herbicidal Activity IPOHE ([14]; rate 63 g ai/ha)
40: Pre-emerge Herbicidal Activity RICE ([1]; rate 250 g ai/ha) | Post-emerge Herbicidal Activity SETVI ([9]; 63 g ai/ha) | Pre-emerge Herbicidal Activity IPOHE ([14]; rate 250 g ai/ha)
60: Post-emerge Herbicidal Activity ECHCG ([10]; 250 g ai/ha) | Pre-emerge Herbicidal Activity SETVI ([17]; rate 63 g ai/ha) | Post-emerge Herbicidal Activity RICE ([19]; 250 g ai/ha)
10: Pre-emerge Herbicidal Activity CASOB ([15]; rate 63 g ai/ha) | Post-emerge Herbicidal Activity CORN ([20]; 63 g ai/ha)
70: Post-emerge Herbicidal Activity IPOHE ([6]; 250 g ai/ha) | Post-emerge Herbicidal Activity SETVI ([9]; 250 g ai/ha) | Pre-emerge Herbicidal Activity ABUTH ([16]; rate 63 g ai/ha)
15: Pre-emerge Herbicidal Activity RICE ([1]; rate 63 g ai/ha)
5: Post-emerge Herbicidal Activity CORN ([20]; 250 g ai/ha)
50: Post-emerge Herbicidal Activity RICE ([19]; 63 g ai/ha)
20: Post-emerge Herbicidal Activity DIGSA ([5]; 63 g ai/ha) | Post-emerge Herbicidal Activity ECHCG ([10]; 63 g ai/ha) | Pre-emerge Herbicidal Activity ECHCG ([18]; rate 63 g ai/ha)
80: Pre-emerge Herbicidal Activity DIGSA ([13]; rate 250 g ai/ha) | Pre-emerge Herbicidal Activity CASOB ([15]; rate 250 g ai/ha)
100: Post-emerge Herbicidal Activity AMARE ([3]; 63 g ai/ha) | Post-emerge Herbicidal Activity CHEAL ([4]; 63 g ai/ha) | Post-emerge Herbicidal Activity CHEAL ([4]; 250 g ai/ha) | Post-emerge Herbicidal Activity CASOB ([7]; 250 g ai/ha) | Post-emerge Herbicidal Activity ABUTH ([8]; 63 g ai/ha) | Post-emerge Herbicidal Activity ABUTH ([8]; 250 g ai/ha) | Pre-emerge Herbicidal Activity CHEAL ([12]; rate 63 g ai/ha) | Pre-emerge Herbicidal Activity CHEAL ([12]; rate 250 g ai/ha) | Pre-emerge Herbicidal Activity ABUTH ([16]; rate 250 g ai/ha) | Pre-emerge Herbicidal Activity AMARE ([21]; rate 63 g ai/ha) | Pre-emerge Herbicidal Activity AMARE ([21]; rate 250 g ai/ha)
90: Post-emerge Herbicidal Activity AMARE ([3]; 250 g ai/ha) | Post-emerge Herbicidal Activity IPOHE ([6]; 63 g ai/ha) | Post-emerge Herbicidal Activity CASOB ([7]; 63 g ai/ha) | Pre-emerge Herbicidal Activity SETVI ([17]; rate 250 g ai/ha)
30: Post-emerge Herbicidal Activity DIGSA ([5]; 250 g ai/ha) | Pre-emerge Herbicidal Activity SORHA ([11]; rate 250 g ai/ha) | Pre-emerge Herbicidal Activity DIGSA ([13]; rate 63 g ai/ha) | Pre-emerge Herbicidal Activity ECHCG ([18]; rate 250 g ai/ha)
